# Test results: patent US20250326742A1, “THERAPEUTIC COMPOUNDS” (RUTGERS, THE STATE UNIVERSITY OF NEW JERSEY, priority 2024, published 2025)
# Experiments:
# [1] = target: SARS-CoV-2 PLpro (Severe acute respiratory syndrome coronavirus 2, UniProt P0DTD1); assay: biochemical; details: 200 nM PLpro, 10 μM FRET substrate, 30 min preincubation at 30° C.
# Protocol: FRET-Based PL^pro Enzymatic Assay
# The SARS-CoV-2 PL^pro enzymatic assays were carried out as follows: The assay was assembled in 96-well plates with 100 μl of 200 nM PL^Pro protein in PL^Pro reaction buffer [50 mM Hepes (pH 7.5), 0.01% Triton X-100, and 5 mM DTT]. Then, 1 μl of testing compound at various concentrations was added to each well and incubated at 30° C. for 30 minutes. The enzymatic reaction was initiated by adding 1 μl of 1 mM FRET substrate (the final substrate concentration is 10 μM). The reaction was monitored in a Cytation 5 image reader with filters for excitation at 360/40 nm and emission at 460/40 nm at 30° C. for 1 hour. The initial velocity of the enzymatic reaction with and without testing compounds was calculated by linear regression for the first 15 minutes of the kinetic progress curve. The ICso values were calculated by plotting the initial velocity against various concentrations of testing compounds with a dose-response function in Prism 8 software.
# [2] = Cytotoxicity assay in Vero E6 cells (neutral red uptake); type: cell-based; details: African green monkey, 2 days at 37° C.
# Protocol: Cytotoxicity Assay in Vero E6 Cells
# Briefly, 80,000 cells/ml of the tested cell lines were dispensed into 96-well cell culture plates at 100 μl per well. Twenty-four hours later, the growth medium was removed and washed with 150 μl of PBS buffer. Two hundred microliters of fresh serum-free medium containing serial diluted compounds was added to each well. After incubating for 2 days at 37° C., the medium was removed and replaced with 100 μl of DMEM medium containing neutral red (40 μg/ml) and incubated for 2 to 4 hours at 37° C. The amount of neutral red taken up was determined by measuring the absorbance at 540 nm using a Multiskan FC Microplate Photometer (Thermo Fisher Scientific). The CC50 values were calculated from best-fit dose-response curves with variable slope in Prism 8.
Compound,IC50 [1] [µM],CC50 at 2 days [2] [µM]
"C#CCNC(=O)CCc1ccccc1C(=O)N[C@H](C)c1cc(-c2cnn(C)c2)cc(-c2ccn(CC)n2)c1 [Example 2, (R)-N-(1-(3-(1-Ethyl-1H-pyrazol-3-yl)-5-(1-methyl-1H-pyrazol-4-yl)phenyl)ethyl)-2-(3-oxo-3-(prop-2-yn-1-ylamino)propyl)benzamide]",1 to 5,256
"CCn1ccc(-c2cc(-c3cnn(C)c3)cc([C@@H](C)NC(=O)c3ccccc3CCC(=O)NNC(=O)C(Cl)Cl)c2)n1 [Example 3, (R)-2-(3-(2-(2,2-Dichloroacetyl)hydrazineyl)-3-oxopropyl)-N-(1-(3-(1-ethyl-1H-pyrazol-3-yl)-5-(1-methyl-1H-pyrazol-4-yl)phenyl)ethyl)benzamide]",1 to 5,> 500
"C=CC(=O)NNC(=O)CCc1ccccc1C(=O)N[C@H](C)c1cc(-c2cnn(C)c2)cc(-c2ccn(CC)n2)c1 [Example 4, (R)-2-(3-(2-Acryloylhydrazineyl)-3-oxopropyl)-N-(1-(3-(1-ethyl-1H-pyrazol-3-yl)-5-(1-methyl-1H-pyrazol-4-yl)phenyl)ethyl)benzamide]",1 to 5,> 500
"CCn1ccc(-c2cc(-c3cnn(C)c3)cc([C@@H](C)NC(=O)c3ccccc3CCC(=O)NNC(=O)/C=C/CN(C)C)c2)n1 [Example 5, (R,E)-2-(3-(2-(4-(Dimethylamino)but-2-enoyl)hydrazineyl)-3-oxopropyl)-N-(1-(3-(1-ethyl-1H-pyrazol-3-yl)-5-(1-methyl-1H-pyrazol-4-yl)phenyl)ethyl)benzamide]",> 5,> 500
"C=CS(=O)(=O)NNC(=O)CCc1ccccc1C(=O)N[C@H](C)c1cc(-c2cnn(C)c2)cc(-c2ccn(CC)n2)c1 [Example 6, (R)-N-(1-(3-(1-Ethyl-1H-pyrazol-3-yl)-5-(1-methyl-1H-pyrazol-4-yl)phenyl)ethyl)-2-(3-oxo-3-(2-(vinylsulfonyl)hydrazineyl)propyl)benzamide]",< 1,31
"CCn1ccc(-c2cc(-c3cnn(C)c3)cc([C@@H](C)NC(=O)c3ccccc3CCC(=O)NNC(=O)/C=C/C(=O)OC(C)(C)C)c2)n1 [Example 7, tert-Butyl (R,E)-4-(2-(3-(2-((1-(3-(1-ethyl-1H-pyrazol-3-yl)-5-(1-methyl-1H-pyrazol-4-yl)phenyl)ethyl)carbamoyl)phenyl)propanoyl)hydrazineyl)-4-oxobut-2-enoate]",< 1,
"CCn1ccc(-c2cc(-c3cnn(C)c3)cc([C@@H](C)NC(=O)c3ccccc3CCC(=O)NNC(=O)/C=C/C(=O)N3CC(C)(C)C3)c2)n1 [Example 8, (R,E)-2-(3-(2-(4-(3,3-Dimethylazetidin-1-yl)-4-oxobut-2-enoyl)hydrazineyl)-3-oxopropyl)-N-(1-(3-(1-ethyl-1H-pyrazol-3-yl)-5-(1-methyl-1H-pyrazol-4-yl)phenyl)ethyl)benzamide]",,> 250
"CCOC(=O)/C=C/C(=O)NNC(=O)CCc1ccccc1C(=O)N[C@H](C)c1cc(-c2cnn(C)c2)cc(-c2ccn(CC)n2)c1 [Example 9, Ethyl (R,E)-4-(2-(3-(2-((1-(3-(1-ethyl-1H-pyrazol-3-yl)-5-(1-methyl-1H-pyrazol-4-yl)phenyl)ethyl)carbamoyl)phenyl)propanoyl)hydrazineyl)-4-oxobut-2-enoate]",< 1,
"CCn1ccc(-c2cc(-c3cnn(C)c3)cc([C@@H](C)NC(=O)c3ccccc3CCC(=O)NNS(=O)(=O)CCl)c2)n1 [Example 10, (R)-2-(3-(2-((Chloromethyl)sulfonyl)hydrazineyl)-3-oxopropyl)-N-(1-(3-(1-ethyl-1H-pyrazol-3-yl)-5-(1-methyl-1H-pyrazol-4-yl)phenyl)ethyl)benzamide]",> 5,> 250
"CCn1ccc(-c2cc(-c3cnn(C)c3)cc([C@@H](C)NC(=O)c3ccccc3CCC(=O)NNS(=O)(=O)C(Cl)Cl)c2)n1 [Example 11, (R)-2-(3-(2-((dichloromethyl)sulfonyl)hydrazineyl)-3-oxopropyl)-N-(1-(3-(1-Ethyl-1H-pyrazol-3-yl)-5-(1-methyl-1H-pyrazol-4-yl)phenyl)ethyl)benzamide]",> 5,> 250
"CCn1ccc(-c2cc(-c3cnn(C)c3)cc([C@@H](C)NC(=O)c3ccccc3CCC(=O)NNC(=O)/C=C/C(=O)N(C)C)c2)n1 [Example 12, (R,E)-2-(3-(2-(4-(Dimethylamino)-4-oxobut-2-enoyl)hydrazineyl)-3-oxopropyl)-N-(1-(3-(1-ethyl-1H-pyrazol-3-yl)-5-(1-methyl-1H-pyrazol-4-yl)phenyl)ethyl)benzamide]",< 1,> 500
"CCn1ccc(-c2cc(-c3cnn(C)c3)cc([C@@H](C)NC(=O)c3ccccc3CCC(=O)NNC(=O)/C=C/C(=O)NC3CC3)c2)n1 [Example 13, (R,E)-2-(3-(2-(4-(Cyclopropylamino)-4-oxobut-2-enoyl)hydrazineyl)-3-oxopropyl)-N-(1-(3-(1-ethyl-1H-pyrazol-3-yl)-5-(1-methyl-1H-pyrazol-4-yl)phenyl)ethyl)benzamide]",< 1,> 250
"CCn1ccc(-c2cc(-c3cnn(C)c3)cc([C@@H](C)NC(=O)c3ccccc3CCC(=O)NNC(=O)/C=C/C(=O)NC3CC(F)(F)C3)c2)n1 [Example 14, (R,E)-2-(3-(2-(4-((3,3-Difluorocyclobutyl)amino)-4-oxobut-2-enoyl)hydrazineyl)-3-oxopropyl)-N-(1-(3-(1-ethyl-1H-pyrazol-3-yl)-5-(1-methyl-1H-pyrazol-4-yl)phenyl)ethyl)benzamide]",< 1,> 250
"CCn1ccc(-c2cc(-c3cnn(C)c3)cc([C@@H](C)NC(=O)c3ccccc3CCC(=O)NNC(=O)CCl)c2)n1 [Example 15, (R)-2-(3-(2-(2-Chloroacetyl)hydrazineyl)-3-oxopropyl)-N-(1-(3-(1-ethyl-1H-pyrazol-3-yl)-5-(1-methyl-1H-pyrazol-4-yl)phenyl)ethyl)benzamide]",< 1,> 250
"C=C(F)C(=O)NNC(=O)CCc1ccccc1C(=O)N[C@H](C)c1cc(-c2cnn(C)c2)cc(-c2ccn(CC)n2)c1 [Example 16, (R)-N-(1-(3-(1-Ethyl-1H-pyrazol-3-yl)-5-(1-methyl-1H-pyrazol-4-yl)phenyl)ethyl)-2-(3-(2-(2-fluoroacryloyl)hydrazineyl)-3-oxopropyl)benzamide]",> 5,> 250
"C=C(Cl)C(=O)NNC(=O)CCc1ccccc1C(=O)N[C@H](C)c1cc(-c2cnn(C)c2)cc(-c2ccn(CC)n2)c1 [Example 17, (R)-2-(3-(2-(2-Chloroacryloyl)hydrazineyl)-3-oxopropyl)-N-(1-(3-(1-ethyl-1H-pyrazol-3-yl)-5-(1-methyl-1H-pyrazol-4-yl)phenyl)ethyl)]",1 to 5,33
"CCn1ccc(-c2cc(-c3cnn(C)c3)cc([C@@H](C)NC(=O)c3ccccc3CCC(=O)NNC(=O)/C=C/C(=O)N3CC(C(F)(F)F)C3)c2)n1 [Example 18, (R,E)-N-(1-(3-(1-Ethyl-1H-pyrazol-3-yl)-5-(1-methyl-1H-pyrazol-4-yl)phenyl)ethyl)-2-(3-oxo-3-(2-(4-oxo-4-(3-(trifluoromethyl)azetidin-1-yl)but-2-enoyl)hydrazineyl)propyl)benzamide]",< 1,
"CCn1ccc(-c2cc(-c3cnn(C)c3)cc([C@@H](C)NC(=O)c3ccccc3CCC(=O)NNC(=O)/C=C/C(=O)NC34CC(C3)C4)c2)n1 [Example 20, (R,E)-2-(3-(2-(4-(Bicyclo[1.1.1]pentan-1-ylamino)-4-oxobut-2-enoyl)hydrazineyl)-3-oxopropyl)-N-(1-(3-(1-ethyl-1H-pyrazol-3-yl)-5-(1-methyl-1 H-pyrazol-4-yl)phenyl)ethyl)benzamide]",< 1,> 250
"CCn1ccc(-c2cc(-c3cnn(C)c3)cc([C@@H](C)NC(=O)c3ccccc3CCC(=O)NNC(=O)/C=C/C(=O)N3CC(F)C3)c2)n1 [Example 21, (R,E)-N-(1-(3-(1-ethyl-1H-pyrazol-3-yl)-5-(1-methyl-1H-pyrazol-4-yl)phenyl)ethyl)-2-(3-(2-(4-(3-fluoroazetidin-1-yl)-4-oxobut-2-enoyl)hydrazineyl)-3-oxopropyl)benzamide]",< 1,> 500
"CCn1ccc(-c2cc(-c3cnn(C)c3)cc([C@@H](C)NC(=O)c3ccccc3CCC(=O)NNC(=O)/C=C/C(=O)N3CCC3)c2)n1 [Example 22, (R,E)-2-(3-(2-(4-(azetidin-1-yl)-4-oxobut-2-enoyl) hydrazineyl)-3-oxopropyl)-N-(1-(3-(1-ethyl-1H-pyrazol-3-yl)-5-(1-methyl-1H-pyrazol-4-yl)phenyl)ethyl)benzamide]",< 1,> 250
